Measured values reported in patent US20110143948A1, “MOLECULAR SIGNATURES AND BIOMARKERS ASSOCIATED WITH MELANOMA AND METHODS OF USE THEREOF” (priority 2008, published 2011).

Test system: ncRNAs (SEQ ID NO 28-89)
Test: ncRNA arrays of melanocytes, keratinocytes, normal skin, melanoma cell lines and patient samples
Set-up: species or system human
Conditions: for ncRNA array expression, patient 2: melanoma patient 2 sample compared to normal skin; for ncRNA array expression, patient 3: melanoma patient 3 sample compared to normal skin; for ncRNA array expression, patient 4: melanoma patient 4 sample compared to normal skin; for ncRNA array expression, patient 5: melanoma patient 5 sample compared to normal skin; for ncRNA array expression, patient 6: melanoma patient 6 sample compared to normal skin; for ncRNA array expression, patient 7: melanoma patient 7 sample compared to normal skin; for ncRNA array expression, patient 8: melanoma patient 8 sample compared to normal skin; for ncRNA array expression, patient 9: melanoma patient 9 sample compared to normal skin; for ncRNA array expression, patient 10: melanoma patient 10 sample compared to normal skin; for ncRNA array expression, patient 19: melanoma patient 19 sample compared to normal skin; for ncRNA array expression, patient 20: melanoma patient 20 sample compared to normal skin; for ncRNA array expression, patient 21: melanoma patient 21 sample compared to normal skin; for ncRNA array expression, patient 22: melanoma patient 22 sample compared to normal skin; for ncRNA array expression, patient 23: melanoma patient 23 sample compared to normal skin; for ncRNA array expression, patient 24: melanoma patient 24 sample compared to normal skin; for ncRNA array expression, patient 25: melanoma patient 25 sample compared to normal skin; for ncRNA array expression, patient 26: melanoma patient 26 sample compared to normal skin; for ncRNA array expression, patient 27: melanoma patient 27 sample compared to normal skin; for ncRNA array expression, patient 28: melanoma patient 28 sample compared to normal skin; for ncRNA array expression, patient 29: melanoma patient 29 sample compared to normal skin; for ncRNA array expression, patient 30: melanoma patient 30 sample compared to normal skin
Description: An ncRNA array platform that contains over 10,000 putative (>200 nt) ncRNAs including most of the known ncRNAs in mouse and human was conducted to evaluate ncRNAs within melanoma. Lack of coding potential was estimated by an algorithm that scores various characteristics of protein-coding genes, including open reading frame length, synonymous/non-synonymous base substitution rates and similarity to known proteins. These arrays provide the first generation of tools designed to analyze the dynamic expression of a large subset of ncRNAs in human and mouse and to identify candidate genes for more detailed functional analysis. In addition to the ncRNA content, probes targeting mRNA content from RefSeq are also included, allowing discovery of coordinated expression with associated protein-coding genes. The result of these assays is a list of ncRNA genes (i.e. SEQ ID NO 28-89) and maps of their sequence boundaries. We have profiled total RNA isolated from melanocytes, keratinocytes, normal human skin, melanoma cell lines and melanoma patient samples to identify differentially expressed ncRNAs in cell lines and tissues. ncRNAs expression in all tested samples were compared to either melanocytes or normal skin. We have identified a group of ncRNAs that are specific for (a) melanocytes (b) Keratinocytes (c) Melanoma cell lines (d) Melanoma patients. […] Probe DNA sequences for this array include: AF086032 (SEQ ID NO 107) […] BC071821 (SEQ ID NO 108) […] C AK130193 (SEQ ID NO 109) […] AL109719 (SEQ ID NO 110) […] AF085888 (SEQ ID NO 111) […] T BC033879 (SEQ ID NO 112) […] AA AK024556 (SEQ ID NO 113) […] Probe nomenclature is standard genebank IDs given by NCBI and other organizations.
Keratinocytes specific signatures were subtracted and resultant ncRNAs were validated by qRT-PCR and Northern blots. Results point out the presence of a group of melanoma specific ncRNAs (i.e. SEQ ID NO 28-89).

Substance	ncRNA array expression, patient 2	ncRNA array expression, patient 3	ncRNA array expression, patient 4	ncRNA array expression, patient 5	ncRNA array expression, patient 6	ncRNA array expression, patient 7	ncRNA array expression, patient 8	ncRNA array expression, patient 9	ncRNA array expression, patient 10	ncRNA array expression, patient 19	ncRNA array expression, patient 20	ncRNA array expression, patient 21	ncRNA array expression, patient 22	ncRNA array expression, patient 23	ncRNA array expression, patient 24	ncRNA array expression, patient 25	ncRNA array expression, patient 26	ncRNA array expression, patient 27	ncRNA array expression, patient 28	ncRNA array expression, patient 29	also measured
SEQ ID NO 39 (TGATCCTGTAAATCATGTTTTTGTTTATTCCCCAACACTAACCTCACTCCTTTACTATTC; listed as DNA, chemistry not given here; listed as Homo sapiens)	−1.04	−0.7852	−1.149	−1.017	−0.9404	−1.086	−0.9282	−1.306	−1.237	−0.6006	−1.263	−1.232	−0.301	−0.164	−1.204	−1.66	−1.776	−1.287	−1.448	−1.374	ncRNA array expression, patient 30: 0.02356
SEQ ID NO 40 (GTTAAAGACTAAATTAGTGATTTGGGAGATCAAGCCAATGGGCTTGTCTAAAACCTAGTC; listed as DNA, chemistry not given here; listed as Homo sapiens)	1.341	1.98	2.261	0.52	1.498	0.4373	1.771	0.4625	0.3577	0.3342	0.9994	0.489	0.9011	1.125	0.452	2.17	2.021	1.467	1.364	1.245	ncRNA array expression, patient 30: 0.7348
SEQ ID NO 41 (CTCGTAACACTGGGAAAACTGCATACAATATTTAGAAGGAACACTAATACAGCAGAATCT; listed as DNA, chemistry not given here; listed as Homo sapiens)	−2.529	−2.702	−2.655	−2.566	−2.676	−2.596	−2.699	−2.456	−2.262	−0.5732	−2.545	−2.574	−2.212	−1.1449	−2.6637	−2.4383	−2.458	−2.204	−2.5405	−2.614	ncRNA array expression, patient 30: 0.7101
SEQ ID NO 42 (TAGACATAGGTTAGAGGGGGAACAGTGCTTAAAATTCCATGGAACTAAGATTTTTTTTAT; listed as DNA, chemistry not given here; listed as Homo sapiens)	−1.5031	−1.941	−1.837	−1.916	−1.445	−1.996	−2.073	−1.562	−0.8067	−2.231	−1.775	−1.59	−1.26	−0.1085	−1.66	−1.5976	−1.684	−1.038	−1.339	−0.5812	ncRNA array expression, patient 30: 1.333
SEQ ID NO 43 (CTTAATCCACATTTGTTTTGAATTTTTCTGATTCCTATAGTACCATACTCTGATGCCTAT; listed as DNA, chemistry not given here; listed as Homo sapiens)	−1.3	−1.272	−1.462	−1.269	−1.488	−1.541	−1.511	−1.226	−1.371	−1.531	−1.239	−1.321	−1.451	−1.442	−1.2517	−1.544	−1.396	−1.339	−1.387	−1.366	ncRNA array expression, patient 30: −0.1449
SEQ ID NO 44 (AGCCAACTCACGCTTAGGGAGAACTCATACCGCCTAAATATAAAGGCAATTATATATATA; listed as DNA, chemistry not given here; listed as Homo sapiens)	−1.843	−1.705	−1.679	−1.807	−1.08	−1.932	−2.019	−1.861	−0.3103	−1.83	−1.651	−1.7	−1.029	−1.95	−1.768	−1.979	−1.501	−1.744	−1.679	−1.809	ncRNA array expression, patient 30: 0.9814
